# From ChEMBL document CHEMBL4196231, “Peptidomimetics for Targeting Protein-Protein Interactions between DOT1L and MLL Oncofusion Proteins AF9 and ENL” (ACS Med Chem Lett, 2018)
# pIC50, pKi: −log10 of the molar value. Square brackets hold non-standard residues; d marks the D form. Peptide text beside a SMILES is read from it. * marks the point of attachment. X3 = c1ccc(-c2cn(CC3CCCCC3)c([C@@H]3CCCN3*)n2)cc1; X2 = CC(C)n1cc(-c2ccccc2)nc1[C@@H]1CCCN1*; X1 = CCn1cc(-c2ccccc2)nc1[C@@H]1CCCN1*; 1Nal = N[C@@H](Cc1cccc2ccccc12)C(=O)O; 2Nal = N[C@@H](Cc1ccc2ccccc2c1)C(=O)O; X4 = Cn1cc(-c2ccccc2)nc1[C@@H]1CCCN1*; Ala(cPent) = N[C@@H](CC1CCCC1)C(=O)O; Gly(cPent) = N[C@H](C(=O)O)C1CCCC1; Ala(cPr) = N[C@@H](CC1CC1)C(=O)O; Pentanoyl(4-Me) = CC(C)CCC(=O)*; Cha = N[C@@H](CC1CCCCC1)C(=O)O; Cba = N[C@@H](CC1CCC1)C(=O)O; Chg = N[C@H](C(=O)O)C1CCCCC1; Orn = NCCC[C@H](N)C(=O)O; Dap = NC[C@H](N)C(=O)O; Bz = O=C(c1ccccc1)*
# Legend:
# Protein ENL = target: T1, Protein ENL (Homo sapiens, UniProt Q03111); assay: Displacement of N-Flu-DOT1L from MBP-tagged ENL (unknown origin) (489 to 559 residues) expressed in Escherichia coli BL21(DE3) measured after 3 hrs by fluorescence polarization assay
# T1 sequence (Q03111 whole entry): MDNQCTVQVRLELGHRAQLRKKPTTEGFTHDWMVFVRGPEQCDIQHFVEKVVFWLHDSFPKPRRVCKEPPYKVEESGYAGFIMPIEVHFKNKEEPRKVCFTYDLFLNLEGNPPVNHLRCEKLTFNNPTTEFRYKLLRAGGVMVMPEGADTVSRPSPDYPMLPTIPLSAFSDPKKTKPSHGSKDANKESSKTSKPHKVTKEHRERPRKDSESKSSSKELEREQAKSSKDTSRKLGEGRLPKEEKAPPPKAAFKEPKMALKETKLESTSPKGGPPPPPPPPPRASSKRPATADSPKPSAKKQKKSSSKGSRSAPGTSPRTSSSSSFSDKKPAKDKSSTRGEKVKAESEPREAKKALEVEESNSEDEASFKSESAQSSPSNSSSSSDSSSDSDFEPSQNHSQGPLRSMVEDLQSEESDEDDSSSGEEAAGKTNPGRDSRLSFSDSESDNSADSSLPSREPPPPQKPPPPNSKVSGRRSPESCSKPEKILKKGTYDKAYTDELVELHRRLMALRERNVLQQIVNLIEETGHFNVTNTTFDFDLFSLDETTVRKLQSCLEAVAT
# Protein AF-9 = target: T2, Protein AF-9 (Homo sapiens, UniProt P42568); assay: Displacement of N-Flu-DOT1L from MBP-tagged AF9 (unknown origin) (487 to 568 residues) expressed in Escherichia coli BL21(DE3) measured after 3 hrs by fluorescence polarization assay
# T2 sequence (P42568 whole entry): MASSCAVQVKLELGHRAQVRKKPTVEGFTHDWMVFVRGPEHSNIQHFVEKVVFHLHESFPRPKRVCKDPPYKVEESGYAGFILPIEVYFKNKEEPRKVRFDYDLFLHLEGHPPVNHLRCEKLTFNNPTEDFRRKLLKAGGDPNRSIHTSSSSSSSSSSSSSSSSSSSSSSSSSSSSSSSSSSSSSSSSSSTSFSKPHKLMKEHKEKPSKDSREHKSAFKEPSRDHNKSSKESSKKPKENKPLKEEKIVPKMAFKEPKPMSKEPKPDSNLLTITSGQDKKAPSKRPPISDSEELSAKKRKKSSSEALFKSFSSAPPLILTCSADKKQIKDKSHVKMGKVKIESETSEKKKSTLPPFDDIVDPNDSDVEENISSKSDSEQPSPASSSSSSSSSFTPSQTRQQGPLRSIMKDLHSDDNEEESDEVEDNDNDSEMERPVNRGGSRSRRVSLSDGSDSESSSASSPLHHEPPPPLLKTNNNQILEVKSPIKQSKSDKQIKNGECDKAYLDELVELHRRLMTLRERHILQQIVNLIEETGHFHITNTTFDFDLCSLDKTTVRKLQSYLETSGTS
SMILES,pIC50 (Protein ENL),pKi (Protein ENL),pIC50 (Protein AF-9),pKi (Protein AF-9)
CC[C@H](C)[C@H](NC(=O)[C@H](CO)NC(=O)[C@H](Cc1ccccc1)NC(=O)[C@@H]1CCCN1C(=O)[C@H](CC(C)C)NC(C)=O)C(=O)N1CCC[C@H]1C(=O)N[C@@H](CC(C)C)C(=O)N(C)C (Ac-LPFSIPL-NMe2),3.75,4.21,4.52,5.25
CC[C@H](C)[C@H](NC(=O)[C@@H]1CCCN1C(=O)[C@H](CC(C)C)NC(C)=O)C(=O)N[C@@H](CO)C(=O)N[C@@H](Cc1ccccc1)C(=O)N1CCC[C@H]1C(=O)N[C@@H](CC(C)C)C(=O)N(C)C (Ac-LPISFPL-NMe2),4.64,5.11,5.78,6.55
CC[C@H](C)[C@H](NC(=O)[C@@H]1CCCN1C(=O)[C@H](CC(C)C)NC(C)=O)C(=O)N[C@@H](CO)C(=O)N[C@H](C(=O)N1CCC[C@H]1C(=O)N[C@@H](CC(C)C)C(=O)N(C)C)[C@@H](C)CC (Ac-LPISIPL-NMe2),5.17,5.67,5.75,6.52
CC[C@H](C)[C@H](NC(=O)[C@@H]1CCCN1C(=O)[C@H](CC(C)C)NC(C)=O)C(=O)N[C@@H](CO)C(=O)N[C@@H](CC(C)C)C(=O)N1CCC[C@H]1C(=O)N[C@@H](CC(C)C)C(=O)N(C)C (Ac-LPISLPL-NMe2),4.73,5.20,5.33,6.08
CC[C@H](C)[C@H](NC(=O)[C@@H]1CCCN1C(=O)[C@H](CC(C)C)NC(C)=O)C(=O)N[C@@H](CO)C(=O)N[C@@H](Cc1c[nH]c2ccccc12)C(=O)N1CCC[C@H]1C(=O)N[C@@H](CC(C)C)C(=O)N(C)C (Ac-LPISWPL-NMe2),5.13,5.63,5.63,6.39
CC[C@H](C)[C@H](NC(=O)[C@@H]1CCCN1C(=O)[C@H](CC(C)C)NC(C)=O)C(=O)N[C@@H](CO)C(=O)N[C@@H](Cc1cccc2ccccc12)C(=O)N1CCC[C@H]1C(=O)N[C@@H](CC(C)C)C(=O)N(C)C (Ac-LPIS[1Nal]PL-NMe2),4.24,4.70,4.85,5.59
CC[C@H](C)[C@H](NC(=O)[C@@H]1CCCN1C(=O)[C@H](CC(C)C)NC(C)=O)C(=O)N[C@@H](CO)C(=O)N[C@@H](Cc1ccc2ccccc2c1)C(=O)N1CCC[C@H]1C(=O)N[C@@H](CC(C)C)C(=O)N(C)C (Ac-LPIS[2Nal]PL-NMe2),4.37,4.84,5.39,6.14
CC[C@H](C)[C@H](NC(=O)[C@@H]1CCCN1C(=O)[C@H](CC(C)C)NC(C)=O)C(=O)N[C@@H](CO)C(=O)N[C@@H](CC1CCCC1)C(=O)N1CCC[C@H]1C(=O)N[C@@H](CC(C)C)C(=O)N(C)C (Ac-LPIS[Ala(cPent)]PL-NMe2),5.66,6.29,6.07,6.89
CC[C@H](C)[C@H](NC(=O)[C@@H]1CCCN1C(=O)[C@H](CC(C)C)NC(C)=O)C(=O)N[C@@H](CO)C(=O)N[C@@H](CC1CCCCC1)C(=O)N1CCC[C@H]1C(=O)N[C@@H](CC(C)C)C(=O)N(C)C (Ac-LPIS[Cha]PL-NMe2),5.22,5.73,5.94,6.74
CC[C@H](C)[C@H](NC(=O)[C@@H]1CCCN1C(=O)[C@H](CC(C)C)NC(C)=O)C(=O)N[C@@H](CO)C(=O)N[C@H](C(=O)N1CCC[C@H]1C(=O)N[C@@H](CC(C)C)C(=O)N(C)C)C1CCCCC1 (Ac-LPIS[Chg]PL-NMe2),4.98,5.46,5.46,6.21
CC[C@H](C)[C@H](NC(=O)[C@@H]1CCCN1C(=O)[C@H](CC(C)C)NC(C)=O)C(=O)N[C@@H](CO)C(=O)N[C@H](C(=O)N1CCC[C@H]1C(=O)N[C@@H](CC(C)C)C(=O)N(C)C)C1CCCC1 (Ac-LPIS[Gly(cPent)]PL-NMe2),5.34,5.87,5.83,6.60
CC[C@H](C)[C@H](NC(=O)[C@@H]1CCCN1C(=O)[C@H](CC(C)C)NC(C)=O)C(=O)N[C@@H](CN)C(=O)N[C@H](C(=O)N1CCC[C@H]1C(=O)N[C@@H](CC(C)C)C(=O)N(C)C)[C@@H](C)CC (Ac-LPI[Dap]IPL-NMe2),5.37,5.91,5.92,6.72
CC[C@H](C)[C@H](NC(=O)[C@@H]1CCCN1C(=O)[C@H](CC(C)C)NC(C)=O)C(=O)N[C@@H](CN)C(=O)N[C@@H](CC1CCCC1)C(=O)N1CCC[C@H]1C(=O)N[C@@H](CC(C)C)C(=O)N(C)C (Ac-LPI[Dap][Ala(cPent)]PL-NMe2),6.41,7.05,6.92,7.70
CC[C@H](C)[C@H](NC(=O)[C@@H]1CCCN1C(=O)[C@H](CC(C)C)NC(C)=O)C(=O)N[C@@H](CCCN)C(=O)N[C@H](C(=O)N1CCC[C@H]1C(=O)N[C@@H](CC(C)C)C(=O)N(C)C)[C@@H](C)CC (Ac-LPI[Orn]IPL-NMe2),3.76,4.22,4.61,5.37
CC[C@H](C)[C@H](NC(=O)[C@H](CO)NC(=O)[C@H](CC(C)C)NC(=O)[C@@H]1CCCN1C(=O)[C@H](CC(C)C)NC(C)=O)C(=O)N1CCC[C@H]1C(=O)N[C@@H](CC(C)C)C(=O)N(C)C (Ac-LPLSIPL-NMe2),4.36,4.82,5.19,5.94
CC[C@H](C)[C@H](NC(=O)[C@H](CO)NC(=O)[C@@H](NC(=O)[C@@H]1CCCN1C(=O)[C@H](CC(C)C)NC(C)=O)C(C)C)C(=O)N1CCC[C@H]1C(=O)N[C@@H](CC(C)C)C(=O)N(C)C (Ac-LPVSIPL-NMe2),5.44,6.00,5.96,6.77
CCn1cc(-c2ccccc2)nc1[C@@H]1CCCN1C(=O)[C@H](CC1CCCC1)NC(=O)[C@H](CN)NC(=O)[C@@H](NC(=O)[C@@H]1CCCN1C(=O)[C@H](CC(C)C)NC(C)=O)C(C)C (Ac-LPV[Dap][Ala(cPent)]-X1),5.80,6.43,6.47,7.30
CC(=O)N[C@@H](CC(C)C)C(=O)N1CCC[C@H]1C(=O)N[C@H](C(=O)N[C@@H](CN)C(=O)N[C@@H](CC1CCCC1)C(=O)N1CCC[C@H]1c1nc(-c2ccccc2)cn1C(C)C)C(C)C (Ac-LPV[Dap][Ala(cPent)]-X2),5.91,6.54,6.43,7.24
CC(=O)N[C@@H](CC(C)C)C(=O)N1CCC[C@H]1C(=O)N[C@H](C(=O)N[C@@H](CN)C(=O)N[C@@H](CC1CCCC1)C(=O)N1CCC[C@H]1c1nc(-c2ccccc2)cn1CC1CCCCC1)C(C)C (Ac-LPV[Dap][Ala(cPent)]-X3),6.37,7.00,7.09,7.89
CC(=O)N[C@@H](CC(C)C)C(=O)N1CCC[C@H]1C(=O)N[C@H](C(=O)N[C@@H](CN)C(=O)N[C@@H](CC1CCCC1)C(=O)N1CCC[C@H]1c1nc(-c2ccccc2)cn1C)C(C)C (Ac-LPV[Dap][Ala(cPent)]-X4),5.75,6.38,6.43,7.24
CC[C@H](C)[C@H](NC(=O)[C@H](CO)NC(=O)[C@H](CC1CC1)NC(=O)[C@@H]1CCCN1C(=O)[C@H](CC(C)C)NC(C)=O)C(=O)N1CCC[C@H]1C(=O)N[C@@H](CC(C)C)C(=O)N(C)C (Ac-LP[Ala(cPr)]SIPL-NMe2),4.84,5.31,5.37,6.11
CC[C@H](C)[C@H](NC(=O)[C@H](CO)NC(=O)[C@H](CC1CCC1)NC(=O)[C@@H]1CCCN1C(=O)[C@H](CC(C)C)NC(C)=O)C(=O)N1CCC[C@H]1C(=O)N[C@@H](CC(C)C)C(=O)N(C)C (Ac-LP[Cba]SIPL-NMe2),4.63,5.09,5.14,5.88
CC(C)[C@H](NC(=O)[C@@H]1CCCN1C(=O)c1ccccc1)C(=O)N[C@@H](CN)C(=O)N[C@@H](CC1CCCC1)C(=O)N1CCC[C@H]1c1nc(-c2ccccc2)cn1CC1CCCCC1 (Bz-PV[Dap][Ala(cPent)]-X3),6.30,6.92,7.24,8.05
CC(C)CCC(=O)N1CCC[C@H]1C(=O)N[C@H](C(=O)N[C@@H](CN)C(=O)N[C@@H](CC1CCCC1)C(=O)N1CCC[C@H]1c1nc(-c2ccccc2)cn1CC1CCCCC1)C(C)C ({Pentanoyl(4-Me)}-PV[Dap][Ala(cPent)]-X3),6.63,7.25,6.83,7.64
